The record followed here is US20260048111A1, “Pharmaceutical Composition, Preparation Method and Use Thereof” (PuGong Biotech (Hangzhou) Co., Ltd., priority 2023, published 2026).

In one experiment the test system is LLC cells. Type of experiment: in vivo, mouse. The following applies: for Tumor Inhibition Rate: LLC. Here is the method:
The LLC cells were cultured in DMEM medium containing […] high-quality fetal bovine serum, in a cell incubator with […] CO2 at 37° C.
The LLC cells (tumor source) in the logarithmic growth phase were collected, and 0.1 mL of cell suspension (containing approximately 1×10^6 cells) was inoculated subcutaneously into the axillary region of the corresponding C57/BL/6 mice.
(§1) On day 1 after tumor cell inoculation, all mice were randomly grouped before drug administration.
(§2) Dosing was performed according to the design of the pharmacological study protocol.
On day 7 and day 9 after tumor cell inoculation, the length (a) and width (b) of the tumor in each group of animals were measured externally. The tumor volume was estimated using the formula: V=0.52×a×b^2.
On day 10 after tumor cell inoculation, the experiment was terminated, and tumors were excised and weighed from each group of animals.
Statistical analysis and tumor inhibition rate calculation were performed as follows: Data were statistically analyzed using GraphPad Prism software. The tumor inhibition rate was calculated based on tumor size or tumor weight using the following formula: Tumor Inhibition Rate (%)=[(Average tumor volume or tumor weight of control group−Average tumor volume or tumor weight of treatment group)/Average tumor volume or tumor weight of control group]×[…].

Experiment [1] concerns Mouse Lewis lung carcinoma (LLC) cells. The experiment in a line: Anti-tumor efficacy of PGc alone and with anti-mouse PD-1, LLC tumor in C57BL/6 mice (Example 6). Type of experiment: in vivo. Here is the method:
The LLC cells were cultured in DMEM medium containing 10% high-quality fetal bovine serum (FBS) and maintained in a cell incubator with 5% CO2 at 37° C.
The LLC cells (tumor source) in the logarithmic growth phase were collected, and 0.1 mL of cell suspension (approximately 1×10^6 cells) was inoculated subcutaneously into the axillary region of the corresponding mice.
as §1, §2
On day 10 after tumor cell inoculation, the experiment was terminated, and tumors in each group of animals were excised and weighed.
Statistical Analysis and Tumor Inhibition Rate Calculation was as follows: Data were statistically analyzed using GraphPad Prism software.

Molecules are shown by their SMILES. Like-named read-outs stand apart in the source and are kept apart here.

`O=P1(N(CCCl)CCCl)NCCCO1` (centres unmarked) [Cyclophosphamide (CTX), Cyclophosphamide]: the “Tumor Volume (mm^3) X” value came out at 80.40 mm^3 in the experiment with LLC cells (LLC s.c. in C57/BL/6 mice, day 7 after tumor cell inoculation, group mean) and 112.89 mm^3 in the experiment on LLC cells (LLC s.c. in C57/BL/6 mice, day 9 after tumor cell inoculation, group mean). Also, the “Tumor Weight (g) X” value with LLC cells (LLC s.c. in C57/BL/6 mice, day 10 after tumor cell inoculation, group mean) worked out at 0.13 g. The “Tumor Inhibition Rate” value with LLC cells (day 7 after tumor cell inoculation, from tumor volume vs NS) was 33%; in the experiment on LLC cells (day 9 after tumor cell inoculation, from tumor volume vs NS), 47%; in the experiment on LLC cells (day 10 after tumor cell inoculation, from tumor weight vs NS), 45%; in experiment [1] (LLC, from tumor weight vs NS), 42.80%. Besides, in experiment [1] (LLC s.c. in C57BL/6 mice, tumors excised at termination (day 8 in protocol table, day 10 in text)), the “Tumor Weight (g) X ± SD” value is on record as 0.03 ± 0.02 g.
